For three compounds, EC50 results are on record in BindingDB's records for doi:10.1021/acs.jmedchem.5b00964 (Peking Union Medical College, 2015).

SMILES strings stand for the structures.

The test addresses T1, X-box-binding protein 1 (Homo sapiens, UniProt P17861).
T1 sequence (P17861 whole entry): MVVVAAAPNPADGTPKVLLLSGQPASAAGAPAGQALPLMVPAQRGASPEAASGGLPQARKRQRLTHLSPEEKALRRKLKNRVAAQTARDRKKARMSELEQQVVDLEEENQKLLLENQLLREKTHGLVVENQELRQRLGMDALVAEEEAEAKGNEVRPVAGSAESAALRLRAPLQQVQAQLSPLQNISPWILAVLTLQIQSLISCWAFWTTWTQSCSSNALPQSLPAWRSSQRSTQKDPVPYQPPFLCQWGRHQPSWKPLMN
The test can be described thus: Transactivation of XBP1 (unknown origin) transfected in rat IEC-6 cells after 48 hrs by dual luciferase reporter gene assay.

Turning to `C1=C2c3cc4c(cc3CCN2Cc2c1ccc1c2OCO1)OCO4`, the EC50 (commonly the concentration giving half of the maximal effect) was 0.0023 µM.

Take `CC(=O)CC1c2c(ccc3c2OCO3)C=C2c3cc4c(cc3CCN21)OCO4` (stereo not drawn): the half-maximal effective concentration (EC50) came out at 0.22 µM.

`C=C(C(C)=O)c1c2c3c(ccc2c(C)c2[n+]1CCc1cc4c(cc1-2)OCO4)OCO3`: the EC50 is 0.21 µM.
